This passage reports mean tumor volume results from patent US11219118B2 (Drexel University, priority 2018, dated 2022).

The subject of this assay is CT26 challenge tumors. In words: Anti-tumor vaccination assay (whole-cell vaccine, live CT26 challenge). The class given is in vivo, Balb/c mice. Particulars: challenge tumor at day 26; mice immunized with CT26 cells treated in vitro (plasma 300 mJ or Cisplatin 50 μM 24 hours). Here is the method: To ascertain whether the DAMP signals elicited by plasma could enhance immune responses against cancer, a vaccination assay was performed. […] Cells were prepared for inoculation and injected into the left flank as a whole-cell vaccine to allow an immune response to develop. One week after immunization, mice were challenged with live CT26 cancer cells on the opposite flank and tumor growth was monitored twice a week until day 26 when the study was terminated as a subset of the animals reached IACUC-approved endpoints (FIG. 8A). CT26 cells treated with media only or Cisplatin (50 μM for 24 hours), a non-ICD inducer, [60] were used as controls.
Cisplatin-vaccine was prepared from cells incubated for 24 hours in Cisplatin media. Media-Vaccine was prepared from cells cultured in regular, complete media for 24 hours. Cisplatin- and media-vaccines were used as controls.
After a 24-hour incubation 3×10^6 cells in 100 μL of PBS were inoculated subcutaneously into the left flank of Balb/c mice. Seven days later, mice were challenged with 3×10^5 live CT26 cells subcutaneously injected into the right flank. Tumors were measured twice weekly with calipers and all mice were euthanized on […].

As for `N.N.[Cl][Pt][Cl]` [Cisplatin], the mean tumor volume was 1041.8±208.3 mm^3.
